US8969516B2, “Method of hydrolysis of peptide bond” (priority 2006, dated 2015)

Test: MALDI-TOF screening of Ni^2+ dependent hydrolysis in a combinatorial peptide library
Format: physicochemical
Conditions: Ni^2+ 2 mM, pH 8.2, 10 mM Tris, score=24/tm
Procedure, shortened: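 MALDI-TOF read-out: appearance of Ser/Thr-X-His-Z-Lys-Phe-Leu-NH2 product signals, plus loss of substrate signals, checked by eye at 2, 4, 6, 8 h. Conditions: 1 mM peptide mixture, 2 mM Ni2+, 10 mM Tris pH 8.2, 37 or 45 °C.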

[1] = CH3CO-Gly-Ala-Thr-X-His-Z-Lys-Phe-Leu-NH2 library, 37° C.
[2] = CH3CO-Gly-Ala-Thr-X-His-Z-Lys-Phe-Leu-NH2 library, 45° C.
[3] = CH3CO-Gly-Ala-Ser-X-His-Z-Lys-Phe-Leu-NH2 library, 37° C.
[4] = CH3CO-Gly-Ala-Ser-X-His-Z-Lys-Phe-Leu-NH2 library, 45° C.

Substance | hydrolysis score from MALDI-TOF screening [1] | hydrolysis score from MALDI-TOF screening [2] | hydrolysis score from MALDI-TOF screening [3] | hydrolysis score from MALDI-TOF screening [4]
Ac-GATKHNKFL-NH2 [TKHN] | 0 (a score of 0 if no trace of the product of hydrolysis was seen after 8 hours of incubation) | 0 (a score of 0 if no trace of the product of hydrolysis was seen after 8 hours of incubation) | – | –
Ac-GATYHIKFL-NH2 [TYHI] | 0 (a score of 0 if no trace of the product of hydrolysis was seen after 8 hours of incubation) | 0 (a score of 0 if no trace of the product of hydrolysis was seen after 8 hours of incubation) | – | –
Ac-GATPHKKFL-NH2 [TPHK] | – | 0 (a score of 0 if no trace of the product of hydrolysis was seen after 8 hours of incubation) | – | –
Ac-GASHHMKFL-NH2 [SHHM] | – | – | 0 (a score of 0 if no trace of the product of hydrolysis was seen after 8 hours of incubation) | 0 (a score of 0 if no trace of the product of hydrolysis was seen after 8 hours of incubation)
Ac-GASLHEKFL-NH2 [SLHE] | – | – | 0 (a score of 0 if no trace of the product of hydrolysis was seen after 8 hours of incubation) | 0 (a score of 0 if no trace of the product of hydrolysis was seen after 8 hours of incubation)
Ac-GASSHPKFL-NH2 [SSHP] | – | – | 0 (a score of 0 if no trace of the product of hydrolysis was seen after 8 hours of incubation) | 0 (a score of 0 if no trace of the product of hydrolysis was seen after 8 hours of incubation)
Ac-GASVHYKFL-NH2 [SVHY] | – | – | 0 (a score of 0 if no trace of the product of hydrolysis was seen after 8 hours of incubation) | 3 (a score of 3 for detection at 8 hours)
Ac-GASQHFKFL-NH2 [SQHF] | – | – | 3 (a score of 3 for detection at 8 hours) | 4 (a score of 4 for detection at 6 hours)
Ac-GATWHKKFL-NH2 [TWHK] | 4 (a score of 4 for detection at 6 hours) | 4 (a score of 4 for detection at 6 hours) | – | –
Ac-GASIHIKFL-NH2 [SIHI] | – | – | 3 (a score of 3 for detection at 8 hours) | 3 (a score of 3 for detection at 8 hours)
Ac-GATLHYKFL-NH2 [TLHY] | 0 (a score of 0 if no trace of the product of hydrolysis was seen after 8 hours of incubation) | 0 (a score of 0 if no trace of the product of hydrolysis was seen after 8 hours of incubation) | – | –
Ac-GATMHNKFL-NH2 [TMHN] | 0 (a score of 0 if no trace of the product of hydrolysis was seen after 8 hours of incubation) | 0 (a score of 0 if no trace of the product of hydrolysis was seen after 8 hours of incubation) | – | –
Ac-GATYHLKFL-NH2 [TYHL] | 0 (a score of 0 if no trace of the product of hydrolysis was seen after 8 hours of incubation) | 0 (a score of 0 if no trace of the product of hydrolysis was seen after 8 hours of incubation) | – | –
Ac-GATAHGKFL-NH2 [TAHG] | 0 (a score of 0 if no trace of the product of hydrolysis was seen after 8 hours of incubation) | 0 (a score of 0 if no trace of the product of hydrolysis was seen after 8 hours of incubation) | – | –
Ac-GATMHQKFL-NH2 [TMHQ] | 0 (a score of 0 if no trace of the product of hydrolysis was seen after 8 hours of incubation) | 0 (a score of 0 if no trace of the product of hydrolysis was seen after 8 hours of incubation) | – | –
Ac-GATIHYKFL-NH2 [TIHY] | 0 (a score of 0 if no trace of the product of hydrolysis was seen after 8 hours of incubation) | 0 (a score of 0 if no trace of the product of hydrolysis was seen after 8 hours of incubation) | – | –
